Laboratory results as given in patent publication US7812037B2, “Dual antiplatelet/anticoagulant pyridoxine analogs” (Medicure International, Inc., priority 2004, dated 2010).
pKi: −log10 of the molar value.

Tests used:
[1] = tested on: platelets (platelet rich plasma); test: Inhibition of platelet aggregation, thrombin receptor activating peptide (TRAP) as agonist; format: cell-based; conditions: TRAP 12 μM, human PRP, read-out: % Reduction in Aggregation TRAP (12 μM); for inhibition at 30 µM: compound 30 μM
Description: (§1) Platelet rich plasma (PRP) was obtained by drawing whole blood from normal human donors (not on any medication) into sodium citrate tubes (3.2%), and centrifuging at 160×g for about 10 minutes. Platelet poor plasma (PPP) was obtained by centrifuging the remainder of the sample after the platelets were removed at 800×g for about 10 minutes. The PRP was adjusted to a count of 280×10^9/L using a mixture of PRP and PPP. The platelets (200 μL) were incubated with the test compounds (25 μL) adjusted to various concentrations (5, 10, 20, 30, 50, and 100 μM) for about 30 minutes at room temperature (approximate final platelet count in the incubation mixture of 250×10^9/L). The samples were incubated for about 3 minutes at about 37° C., and then transferred to the mixing wells of a Chrono-log 4 channel aggregometer (Chrono-log Corp., Havertown, Pa.). After baselines were established, agonist (25 μL of 40 μM ADP (Sigma, St. Louis, Mo.) or 25 μL of 50 μg/mL and 10 μg/mL collagen (Helena Laboratories, Beaumont, Tex.) or 25 μL of 120 μM thrombin receptor activating peptide (TRAP) (Sigma)) was then added. Aggregation was monitored for 5 minutes at 37° C. with stirring (1000 rpm). The amplitude and slope of each tracing were calculated to determine the amount of aggregation. Control samples were performed using only solvent. The % reduction in aggregation was calculated for each sample compared to the proper solvent control.

[2] = biological target: T1, Human FXa (Homo sapiens, UniProt P00742); test: Determination of Anti-Factor Xa (Fxa) Activity; format: biochemical; conditions: competitive inhibition; substrate Pefachrome Xa; pH 7.5
T1 construct: Determination of Anti-Factor Xa (Fxa) Activity; purchased Calbiochem
T1 sequence (P00742 235-488 limits assumed): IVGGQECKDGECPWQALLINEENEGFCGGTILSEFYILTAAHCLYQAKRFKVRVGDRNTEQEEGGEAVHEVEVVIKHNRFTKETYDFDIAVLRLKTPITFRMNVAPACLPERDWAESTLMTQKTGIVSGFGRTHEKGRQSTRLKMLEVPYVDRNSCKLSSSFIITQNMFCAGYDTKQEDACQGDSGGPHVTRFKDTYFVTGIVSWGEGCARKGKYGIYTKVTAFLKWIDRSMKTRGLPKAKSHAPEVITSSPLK
T1 sequence (P00742 41-179 partner limits assumed): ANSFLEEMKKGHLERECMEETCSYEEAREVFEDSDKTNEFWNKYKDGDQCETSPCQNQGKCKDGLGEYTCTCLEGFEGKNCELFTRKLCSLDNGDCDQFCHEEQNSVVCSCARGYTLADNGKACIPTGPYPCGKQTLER
Description: The test compounds (40 μL) adjusted to various concentrations (0.25 to 100 μM) were incubated with 5 nM Human FXa (Calbiochem, San Diego, Calif.) enzyme in 125 mM Tris [Tris(hydroxymethyl)aminomethane] buffer (pH 7.5) containing 375 mM sodium chloride and 0.25% polyethylene glycol (MW 8000) (80 μL) at room temperature for about 30 minutes. 80 μL of synthetic substrate Pefachrome® Xa (Pentapharm, Basel, Switzerland), adjusted to various concentrations from 125 μM to 1.25 mM, was added. The activity was measured at 37° C. by monitoring absorbance at 405 nm for 15 minutes using a FLUOstar OPTIMA™ (BMG Labtech GmbH, Offenburg, Germany) microplate reader. Control sample was the solvent alone. Each test compound was analyzed twice using 4 concentrations of compound plus control (in duplicate) with 5 concentrations of substrate (50, 100, 200, 300 and 500 μM). The specific activity (ΔA405/min/nM enzyme) was determined for each data point. The Ki for competitive inhibition was then determined for each test compound using the Enzyme Kinetics module of Sigmaplot 8.0 (SPSS Inc., Chicago, Ill.).

[3] = tested on: platelets (platelet rich plasma); test: Inhibition of platelet aggregation, collagen as agonist; format: cell-based; conditions: human PRP; for inhibition at 30 µM: compound 30 μM; for inhibition at 5 µM: compound 5 μM
Description: as §1

[4] = biological target: T2, Human Thrombin (Homo sapiens, UniProt P00734); test: Determination of Anti-Thrombin (Factor IIa) Activity; format: biochemical; conditions: competitive inhibition; substrate Pefachrome Thr; pH 8.3
T2 construct: Determination of Anti-Thrombin (Factor IIa) Activity; purchased Calbiochem
Description: The test compounds (40 μL) adjusted to various concentrations (0.25 to 100 μM) were incubated with Human Thrombin (Calbiochem) enzyme (5 nM) in 31 mM Tris buffer (pH 8.3) containing 81 mM sodium chloride and 0.63% bovine serum albumin (fraction V)(80 μL) at room temperature for about 30 minutes. 80 μL of Pefachrome® Thr (Pentapharm) was adjusted to various concentrations, from 62.5 μM to 1.25 mM. The activity was measured at about 37° C. by monitoring absorbance at 405 nm for about 15 minutes using a FLUOstar OPTIMA™. Control sample was the solvent alone. Each test compound was analyzed twice using 4 concentrations of compound plus control (in duplicate) with 5 concentrations of substrate (50, 100, 200, 300 and 500 μM). The specific activity (ΔA405/min/nM enzyme) was determined for each data point. The Ki for competitive inhibition was then determined for each test compound using the Enzyme Kinetics module of Sigmaplot 8.0 (SPSS).

[5] = tested on: platelets (platelet rich plasma); test: Inhibition of platelet aggregation, ADP as agonist; format: cell-based; conditions: ADP 4 μM, human PRP, read-out: % Reduction in Aggregation ADP (4 μM); for inhibition at 30 µM: compound 30 μM
Description: as §1

[6] = collagen 1 μg/mL, read-out: % Reduction in Aggregation Collagen (1 μg/mL)
[7] = collagen 5 μg/mL, read-out: % Reduction in Aggregation Collagen (5 μg/mL)

Row | SMILES | inhibition at 30 µM [1] | pKi [2] | inhibition at 30 µM [3, 6] | inhibition at 30 µM [3, 7] | pKi [4] | inhibition at 30 µM [5] | inhibition at 10 µM ([1]; compound 10 μM) | inhibition at 10 µM ([3]; compound 10 μM, collagen 1 μg/mL, read-out: % Reduction in Aggregation Collagen (1 μg/mL)) | inhibition at 10 µM ([5]; compound 10 μM) | inhibition at 50 µM ([1]; compound 50 μM) | inhibition at 50 µM ([3]; compound 50 μM, collagen 1 μg/mL, read-out: % Reduction in Aggregation Collagen (1 μg/mL)) | inhibition at 50 µM ([5]; compound 50 μM) | inhibition at 5 µM ([1]; compound 5 μM) | inhibition at 5 µM [3, 6] | inhibition at 5 µM [3, 7] | inhibition at 5 µM ([5]; compound 5 μM)
1 | Cc1ncc(CNc2ccc(-c3ccc(C(=N)N)cc3)cc2)c(C)c1OCc1ccc(C(=N)N)cc1 [Compound 25, 4′-{[5-(4-Carbamimidoyl-benzyloxy)-4,6-dimethyl-pyridin-3-ylmethyl]-amino}-biphenyl-4-carboxamidine] | 95% | 6.49 | 96% | 52% | 5.42 | 93% | – | – | – | – | – | – | – | – | – | –
2 | Cc1ncc(CNc2ccc(-c3ccc(C(=N)N)cc3)cc2)c(C)c1OCc1cccc(C(=N)N)c1 [Compound 29, 4′-{[5-(3-Carbamimidoyl-benzyloxy)-4,6-dimethyl-pyridin-3-ylmethyl]-amino}-biphenyl-4-carboxamidine] | 32% | 6.85 | 32% | 15% | 5.34 | 52% | – | – | – | – | – | – | – | – | – | –
3 | Cc1ncc(CNc2ccc(C(=N)N)cc2)c(C)c1OCc1ccc(C(=N)N)cc1 [Compound 31, 4-{[5-(4-Carbamimidoyl-benzyloxy)-4,6-dimethyl-pyridin-3-ylmethyl]-amino}-benzamidine] | – | 5.87 | – | – | 7.21 | – | 84% | 83% | 80% | – | – | – | – | – | – | –
4 | Cc1ncc(CNc2ccc(C(=N)N)cc2)c(C)c1OCc1cccc(C(=N)N)c1 [Compound 33, 4-{[5-(3-Carbamimidoyl-benzyloxy)-4,6-dimethyl-pyridin-3-ylmethyl]-amino}-benzamidine] | – | 6.55 | – | – | 7.51 | – | – | – | – | 79% | 81% | 84% | – | – | – | –
5 | Cc1ncc(CNc2ccc(-c3ccc(C(=N)N)cc3)cc2)c(CNCCCCCC(=O)O)c1OCc1ccc(C(=N)N)cc1 [Compound 56, 6-({3-(4-Carbamimidoyl-benzyloxy)-5-[(4′-carbamimidoyl-biphenyl-4-ylamino)-methyl]-2-methyl-pyridin-4-ylmethyl}-amino) hexanoic acid] | – | 5.21 | – | – | 6.07 | – | – | – | – | – | – | – | 90% | 91% | 63% | 96%
6 | Cc1ncc(CNc2ccc(-c3ccc(C(=N)N)cc3)cn2)c(CO)c1OCc1ccc(C(=N)N)cc1 [Compound 60] | 89% | 4.60 | 47% | 26% | 4.96 | 87% | – | – | – | – | – | – | – | – | – | –
